Results on 9 molecules are retold here after patent publication US6133299A, “Methods for treating neurodegenerative diseases and disorders using N-(2,6-disubstituted aromatic)-N'-pyridinyl ureas and other anticonvulsant compounds” (Warner-Lambert Company, priority 1993, dated 2000).

Entries after “also recorded” stand apart in the source; their conditions may differ.

The subject of test [1] is voltage-dependent sodium channels. To be noted: cited from earlier work.
Test [2] deals with Hippocampal Slices. In words: Recovery of synaptic activity (EPSP) in hippocampal slices after hypoxia-hypoglycemia (Example 4). Type of test: cell-based, rat (male Wistar). On the procedure: Young male Wistar rats (150 to 250 g) were anesthetized with ketamine (200 mg/kg IP) and ether and were perfused transcardially with cold, oxygenated, low sodium-containing physiological buffer solution (252 mM sucrose, 3.5 mM KCl, 1.0 mM MgSO4, 20 mM CaC1, 26 mM NaHCO3, 1.25 mM NaH2 PO4, and 10 mM glucose) with 50 μM ketamine added. Brains were removed and hippocampi carefully excised. Hippocampi were sliced transversely at 450 μm and transferred into cold (4° C.) low-sodium buffer solution gassed with 95% O2, 5% CO2 at 31° C. After 45 minutes slices were transferred to oxygenated normal physiological solution (126 mM NaCl, 3.5 mM KCl, 1.0 mM MgSO4, 2.0 mM CaCl2, 20 mM NaHCO3, 1.25 mM NaH2 PO4, and 10 mM glucose) at 31° C. for at least 1 hour before experiments began. After preincubation, slices were transferred to a heated (36° C.), gassed incubation chamber where they were continuously superfused with gassed normal physiological solution. Evoked extracellular synaptic potentials (EPSPs) were obtained using glass micropipettes placed approximately 100 μm into the slice. Electrical stimulation was applied once per minute to the stratum radiatum by insulated paired nichrome wires (60 μm diameter). Stimuli consisted of 150 μA pulses lasting 0.4 msec. […] Data from a slice were used only if EPSP amplitude was greater than 2.0 mV before hypoxia-hypoglycemia.
(§1) Evoked potentials were recorded and analyzed with a digital computer interface. Experiments were started by recording for several minutes under normal conditions (95% O2, 5% CO2, 10 mM glucose). Then drug was added to the superfusion solution (or normal solution was continued in control experiments). After 10 minutes of drug superfusion, hypoxia-hypoglycemia was induced by switching to superfusion solution containing added drug with low glucose (2 mM) that was equilibrated with 95% N2 and 5% CO2. At the same time the slice chamber gas was switched to 95% N2 and 5% CO2. Hypoxia-hypoglycemia was continued for 12 minutes. After 12 minutes, 95% O2 and 10 mM glucose were returned to the slices and the superfusing solution. Following 15 minutes of reoxygenation, the experiment was ended. EPSPs were considered recovered if they returned to at least half of their original amplitude. The percentage of slices with recovered EPSPs were calculated for each condition.
This study was identical in design to Example 3 except that during the hypoxic period of 12 minutes, glucose was reduced from 10 mM to 2 mM rather than from 10 mM to zero as in Example 3.

Test [3] deals with Neuronal/Glial Cortical Cultures. In words: Hypoxia-induced lactate dehydrogenase release (cell injury) in neuronal/glial cortical cultures. Type of test: cell-based, rat (Sprague Dawley). To be noted: Rattus norvegicus, read-out: % Inh (percent inhibition of the release of lactate dehydrogenase in comparison to hypoxic control cultures). How it is done: An assay was conducted to compare the inhibitory action of various compounds which are the subject of the present invention. The assay measured the oxygen deprivation-induced neuronal cell death from various cortical cultures. Lactate dehydrogenase (LDH) is a cytosolic enzyme that is only present in the extracellular medium if cell membranes rupture, indicating cell death. Therefore, LDH release into the culture medium is a convenient assay of cell death. The results of Table 3 indicate that each of the compounds tested decreased neuronal cell death from hypoxia in vitro.
The uteri of Sprague Dawley rats in their 18th day of fetal gestation were removed under halothane anesthesia and placed in a chilled bath of magnesium and calcium-free Hank's balanced salt solution (HBSS). Cortical brain hemispheres were removed from individual fetuses and digested in 0.1% trypsin in HBSS for 15 minutes at room temperature. Digested tissue was washed three times with HBSS then dissociated into a single cell suspension by trituration with a glass pipette. […] One hundred microliters of this cell suspension was pipetted into individual wells of 96-well tissue culture plates previously coated with poly-L-lysine, then stored in a humidified incubator (37° C., 3% CO2). Glial cell growth was stopped by the addition of 100 μL of 45% DME, 45% HAM F12, and 10% Horse serum (10/0 DME/F12) containing 15 μg/mL of 5-fluoro-2-deoxyuridine and 35 μg/mL of uridine, 3 days after the initial plating. Cultures were fed at 2- or 3-day intervals thereafter by replacing 100 μL of spent medium with an identical volume of fresh 10/0 DME/F12.
Sixteen-day-old cultures were prepared for experiments by removing growth medium from each culture well and rinsing once with 250 μL of Mg^++ -free HBSS containing 1.8 mM Ca^++ and 1 g/L D-glucose (0 Mg-HBSS) Control and test agent solutions, prepared using 0 Mg-HBSS medium, were dispensed in 50 μL aliquots into individual test wells (Total volume/well=50 μL). All liquid medium preparations to this point were equilibrated with […], 5% CO2. Plates were placed into a 37° C., humidified, triple-gas incubator with O2 and CO2 levels maintained at 1% and 10%, respectively. Plates were removed after 7.5 hours of oxygen deprivation and restored to normoxic conditions (20% O2 /10% CO2, 37° C.) following a 50 μL addition to each well of appropriate control or test agent solutions containing 1.8 mM Ca^++, 1.6 mM Mg^++, and 7.0 g/L D-glucose. Final medium concentrations of 1.8 mM Ca^++, 0.8 mM Mg^++, and 4 g/L D-glucose were present during the reoxygenation period.
Medium concentrations of lactate dehydrogenase (LDH), a cytosolic enzyme normally retained by cells but released upon cell death, were determined for each well following an additional 16.5-hour normoxic exposure period. Individual 25 μL medium specimens were collected from each well and placed into wells of a clean 96-well microtiter plate containing 225 μL of 0.1 M KPO4 buffer (pH=7.5 at 25° C.) and 30 μg NADH (reduced […] adenine dinucleotide). After 10-minute incubation at 37° C., 30 μL of 2.4 mM sodium pyruvate was added to each well and plates were gently shaken to mix solution. Plates were immediately placed into a Multiscan MCC/340 plate reader and scanned for […] (excitation at 340 nm) for 1 minute at 5-second intervals. A kinetic analysis of the change in medium absorbance resulting from shifts in NADH concentrations was used, in combination with factors to correct for temperature, light path, and volume adjustments to determine medium LDH concentrations (IU/mL). Normoxic control baseline LDH levels were subtracted from both hypoxic control and test agent values prior to determining test agent effectiveness in preventing oxygen deprivation-induced injury.

In test [4] the test system is neuroprotective capabilities. In words: Neuroprotective capabilities in vitro (general statement). Type of test: cell-based.
For test [5], the system named is Hippocampal Slices. In words: Effect on synaptic potentials / presynaptic action potential in slices before hypoxia. Type of test: cell-based, rat (male Wistar). The settings on record: concentrations used, before hypoxia. On the procedure: Young male Wistar rats (150 to 250 g) were anesthetized with ketamine (200 mg/kg IP) and ether and were perfused transcardially with cold, oxygenated, low sodium-containing physiological buffer solution (252 mM sucrose, 3.5 mM KCl, 1.0 mM MgSO4, 20 mM CaC1, 26 mM NaHCO3, 1.25 mM NaH2 PO4, and 10 mM glucose) with 50 μM ketamine added. Brains were removed and hippocampi carefully excised. Hippocampi were sliced transversely at 450 μm and transferred into cold (4° C.) low-sodium buffer solution gassed with 95% O2, 5% CO2 at 31° C. After 45 minutes slices were transferred to oxygenated normal physiological solution (126 mM NaCl, 3.5 mM KCl, 1.0 mM MgSO4, 2.0 mM CaCl2, 20 mM NaHCO3, 1.25 mM NaH2 PO4, and 10 mM glucose) at 31° C. for at least 1 hour before experiments began. After preincubation, slices were transferred to a heated (36° C.), gassed incubation chamber where they were continuously superfused with gassed normal physiological solution. Evoked extracellular synaptic potentials (EPSPs) were obtained using glass micropipettes placed approximately 100 μm into the slice. […]
Evoked potentials were recorded and analyzed with a digital computer interface. […] The percentage of slices with recovered EPSPs were calculated for each condition.
Excitatory synaptic potential (EPSP) amplitude was measured before and during drug treatment in the 10-minute period preceding reduced oxygen and glucose. […]

For test [6], the system named is Hippocampal Slices. In words: Recovery of synaptic activity (EPSP) in hippocampal slices after hypoxia-hypoglycemia (Example 3). Type of test: cell-based, rat (male Wistar). To be noted: for percentage of slices that recovered EPSPs: control approximately 5%. On the procedure:
An in vitro model with rat hippocampal brain slices exposed to hypoxia-hypoglycemia was used to simulate ischemia. Neuroprotection was measured by the recovery of excitatory postsynaptic potentials after reoxygenation.
Young male Wistar rats (150 to 250 g) were anesthetized with ketamine (200 mg/kg IP) and ether and were perfused transcardially with cold, oxygenated, low sodium-containing physiological buffer solution (252 mM sucrose, 3.5 mM KCl, 1.0 mM MgSO4, 20 mM CaC1, 26 mM NaHCO3, 1.25 mM NaH2 PO4, and 10 mM glucose) with 50 μM ketamine added. Brains were removed and hippocampi carefully excised. Hippocampi were sliced transversely at 450 μm and transferred into cold (4° C.) low-sodium buffer solution gassed with 95% O2, 5% CO2 at 31° C. After 45 minutes slices were transferred to oxygenated normal physiological solution (126 mM NaCl, 3.5 mM KCl, 1.0 mM MgSO4, 2.0 mM CaCl2, 20 mM NaHCO3, 1.25 mM NaH2 PO4, and 10 mM glucose) at 31° C. for at least 1 hour before experiments began. After preincubation, slices were transferred to a heated (36° C.), gassed incubation chamber where they were continuously superfused with gassed normal physiological solution. Evoked extracellular synaptic potentials (EPSPs) were obtained using glass micropipettes placed approximately 100 μm into the slice. Electrical stimulation was applied once per minute to the stratum radiatum by insulated paired nichrome wires (60 μm diameter). Stimuli consisted of 150 μA pulses lasting 0.4 msec. The 150 μA stimulus usually gave nearly a maximal EPSP (excitatory postsynaptic potential) amplitude. Data from a slice were used only if EPSP amplitude was greater than 2.0 mV before hypoxia-hypoglycemia.
as §1

Test [7] has as its system cytokinin activity. To be noted: cited from earlier work.

Broadly, the inhibition is the change of the read-out against control, counted positive when it falls. In the case of `NC(=O)N1c2ccccc2C=Cc2ccccc21` [Carbamazepine, carbamazepine], the “action on voltage-dependent sodium channels” value in test [1] is “more selective for sodium channels”. Besides, the “Number Slices Recovered / Number Slices Tested (≥50% EPSP amplitude recovery after reoxygenation)” value in test [2] (20 μM) is listed as 2/9. In test [2] (50 μM), the “Number Slices Recovered / Number Slices Tested (≥50% EPSP amplitude recovery after reoxygenation)” value is 4/10. In test [3], the inhibition at 30 µM was 53% and the inhibition at 100 µM turned out to be 95%. In addition, the neuroprotective capabilities result in test [4] was “shown in vitro to have neuroprotective capabilities”.

With `Nc1nnc(-c2cccc(Cl)c2Cl)c(N)n1` [Lamotrigine, lamotrigine], in test [3], the inhibition at 30 µM stood at 68% and the inhibition at 100 µM worked out at 83%. Further, in test [4], the neuroprotective capabilities result was “shown in vitro to have neuroprotective capabilities”.

Take `O=C(Nc1ccncc1)Nc1c(Cl)cccc1Cl` [N-(2,6-Dichlorophenyl)-N'-4-pyridinyl urea]: in test [3], the inhibition at 30 µM worked out at 62% and the inhibition at 100 µM was determined as 88%.

In the case of `Cc1cccc(C)c1NC(=O)Nc1ccncc1` [N-(2,6-dimethylphenyl)-N'-4-pyridinyl urea], in test [3], the inhibition at 30 µM is 106% and the inhibition at 100 µM was found to be 81%.

`Cc1cccc(Cl)c1NC(=O)Nc1ccncc1` [N-(2-chloro-6-methylphenyl)-N'-4-pyridinyl urea]: the “action on voltage-dependent sodium channels” value in test [1] is recorded as “modulates voltage-dependent sodium channels of nerve cell membranes; also recorded: modulator of neuronal voltage-gated sodium ion channels”. The “effect on EPSP / presynaptic action potential amplitude” value in test [5] was “none of the concentrations tested reduced EPSP or presynaptic action potential amplitude”. Further, in test [3], the inhibition at 30 µM was found to be 101% and the inhibition at 100 µM is 80%. In test [6] (0.5 μM), the “Number Slices Recovered / Number Slices Tested (≥50% EPSP amplitude recovery after reoxygenation)” value is 0/8 and the changes from hypoxia entry is “not different from control treatments”. Besides, in test [6] (2 μM), the “Number Slices Recovered / Number Slices Tested (≥50% EPSP amplitude recovery after reoxygenation)” value is recorded as 3/8, the “mean EPSP amplitude after hypoxia” value is “near significance” and the “percentage of slices that recovered EPSPs” value was determined as 37%. Further, the “protection / improved recovery of EPSPs” value in test [6] (2 μM and 20 μM) is “significant protection of hippocampal slices from irreversible loss of synaptic potentials; also recorded: improves recovery of EPSPs”. In test [6] (20 μM), the “Number Slices Recovered / Number Slices Tested (≥50% EPSP amplitude recovery after reoxygenation)” value was 9 out of 10, the “mean EPSP amplitude after hypoxia” value is “significant with a high degree of confidence; also recorded: almost complete recovery of EPSPs”, the “protection from loss of EPSPs” value was “almost complete protection from loss of EPSPs” and the “percentage of slices that recovered EPSPs” value stood at 90%. Moreover, the “Number Slices Recovered / Number Slices Tested (≥50% EPSP amplitude recovery after reoxygenation)” value in test [6] (20 μM, listed as Test drug) is on record as 9/10. The “mean EPSP amplitude after hypoxia, overall effect” value in test [6] (concentration-related, 0.5-20 μM) was “significantly increased the mean EPSP amplitude after hypoxia; also recorded: increased EPSP amplitude following hypoxia in a concentration-dependent manner”.

Take `O=C(Nc1cccnc1)Nc1ccc(Cl)c(Cl)c1` [N-(3,4-dichlorophenyl)-N'-3-pyridinyl urea]: the cytokinin activity result in test [7] is “show such activity”.

In the case of `O=C(Nc1ccncc1)Nc1ccc(Cl)c(Cl)c1` [N-(3,4-dichlorophenyl)-N'-4-pyridinyl urea], the cytokinin activity result in test [7] is reported as “show such activity”.

Consider `COCCOC(=O)C1=C(C)NC(C)=C(C(=O)OC(C)C)C1c1cccc([N+](=O)[O-])c1` (centres unmarked) [Nimodipine, nimodipine], for which the “concentration at which it interacts with sodium channels” value in test [1] is recorded as “greater than 10 μM”. For the same molecule, the “prevention of ischemic damage / loss of EPSPs” value in test [2] (1 μM) is “failed to prevent loss of EPSPs”. Further, the “Number Slices Recovered / Number Slices Tested (≥50% EPSP amplitude recovery after reoxygenation)” value in test [2] (1.0 μM) is recorded as 1/9.

In the case of `Cc1cccc(Cl)c1NC(=O)/C=C1\SCC(=O)N1C` [ralitoline], in test [4], the neuroprotective capabilities result was “shown in vitro to have neuroprotective capabilities”.
